Measurements from patent US20100093643A1 (priority 2006, published 2010).
Where “and” joins values, the source holds several entries; their conditions need not be identical. Identical values can stand only once. Like-named read-outs stand apart in the source and are kept apart here.

Columns and labels:
outbreed male mice = test: Analgesic activity in vivo, tail pinch method; parameters: species or system mouse
Protocol: Analgesic activity of enkephalin analogues was determined by a “tail pinch” method [Ueda H.; Amano H.; Shiomi H.; Takagi H. (1979). Eur. J. Pharmacol., 56, 265-268]. […] Ten mice were used in each experiment.
The studied substances were dissolved in sterile physiological solution and injected in J-shaped needles into the brain of conscious mice at a dose of 10 μl. Control animals received 10 μl of sterile physiological solution. Intravenous administration was into the tail vein. Analgesic activity was tested by pinching the mouse tail with an artery clip with 200 g pressure. The mice who bit the clip within one second after application of pinching were selected for assays. Analgesic activity was defined as latency on the biting response greater than 6 sec. The analgesic tests were performed 5, 15, 30, 60 and 90 min after administration and then every 30 min until the analgesic reaction was stopped. The analgesic activity of the peptides was expressed as a percentage of mice not showing the biting response.

[1] = target: T1, peripheral opiate receptors, guinea pig ileum (GPI, predominantly μ-type of opioid receptor) (Cavia porcellus, UniProt A0ACM8Q262); details: GPI assay
T1 construct: other: guinea pig ileum longitudinal muscle, electrical stimulation; GPI Relative potency, %; other: GPI assay

[2] = tested on: peripheral opiate receptors, guinea pig ileum (GPI, predominantly μ-type of opioid receptor); details: ratio of relative potencies GPI to MVD
CD-1 male mice = test: Analgesic activity in vivo, hot plate method; parameters: species or system mouse
Protocol: Male Swiss albino mice (CD1), weighing 20-22 g were used throughout the study. The animals were housed in solid bottom polycarbonate cages with access to standard laboratory diet (Laboratory Rodent Diet PK-120) and tap water ad libitum, under controlled environmental conditions (temperature:18-26° C., 8 a.m. to 8 p.m. light-dark cycle). Mice were tested only once.
The Hot-plate-meter represents the thermostatic controllable, electro-heated up surface limited by transparent walls (L: 25 cm, W: 25 cm, H: 35 cm). The forward panel of the device is equipped by buttons for the control of time and a temperature mode (Columbus Instruments).
The i.v. administration was performed via tail vein as a bolus injection. The doses for all animals were calculated on the basis of the last value of the individual body weight.
The animals accurately were placed on the preheated hot plate (55±0.5° C.) after i.v. injection of saline or peptides and the latencies to first paw licking and first jumping were measured. The other behavioral reactions were ignored. The animals were removed from a hot surface after the first jumping. A cut-off time of 180 s was used to avoid tissue damage.
To evaluate the hot-plate test responses, the control latencies (t0) and test latencies (t1) were determined after injection of saline or peptides, respectively. The percentage of the maximal possible effect (% MPE) was calculated as % MPE=(t1−t0)/(t2−t0)×100, where the cut-off time (t2) was 180 s.
The latency for the first jumping is considered as the most indicative in the hot-plate test. The area under the time-response curve was calculated by methods described elsewhere (Cicero and Meyer, 1973), to assess the magnitude of antinociception (FIG. 5, see appendix).
The median analgesic dose (ED50) also has been calculated for this parameter.

[3] = tested on: BALB mice under normobaric hypoxic hypoxia; test: Antihypoxic action, lifetime of mice under normobaric hypoxic hypoxia; type: in vivo, mouse
Protocol: Antihypoxic action of the new enkephalin analogue (1) was determined by the measurement of lifetime duration in mice under the normobaric hypoxic hypoxia conditions.
The experiments were conducted on BALB-bread mice weighing 20 to 22 g. The normobaric hypoxic hypoxia conditions were modelled by placing the animals in hermetic camera, containing Ca(OH)2 to absorb the excess of carbon dioxide. The substances studied were injected intraperitoneally 1 min. before the placing of animals in the hermetic camera. The peptides were used at doses 1.0 mg/kg. […] Sodium oxybutyrate at highest therapeutic dose was used as comparative compound. The lifetime was estimated as the time when the animals stopped making breathing movements.

[4] = tested on: peripheral opiate receptors, mouse vas deferens (MVD); test: MVD bioassay, suppression of electrically induced contraction
Protocol: Brit. J. Pharmacol., 35, 10-28]. The longitudinal muscle of ileum from guinea pig of any sex (weight 350-500 g) was carefully separated from underlying circular muscle and placed into a small bath with Krebs solution at 36° C.
The solution was constantly aerated. A constant load of 0.2 g was applied to the tissue. The tissue was stimulated by means of the ring platinum electrodes by single impulses of […] duration with 0.1 Hz frequency. […] Vas deferens of mice (weight 27 to 30 g) were placed into a bath with modified Krebs solution (not containing magnesium sulphate) at 31° C. The substances under study were dissolved in distilled water. The inhibiting activity of the compounds was determined by accumulating doses, adding increasing concentrations of the compounds without washing. The activity of the preparations was expressed as IC50 in nmol/l. The results obtained in 8-10 tests were statistically processed using Student's criterion.

[5] = tested on: rats with ligature of coronary arteries; type: in vivo, rat; parameters: myocardial necrosis size: unit not given here; details: for CPK / HF-CPK / Lactate: blood; for Lethality %: rats with sharp myocardial ischemia
[6] = 6 hours after ligature, compound (1) 0.05 mg/kg
[7] = 24 hours after ligature, compound (1) 0.05 mg/kg, nitroglycerine highest therapeutic dose

T1 sequence (A0ACM8Q262 1-400): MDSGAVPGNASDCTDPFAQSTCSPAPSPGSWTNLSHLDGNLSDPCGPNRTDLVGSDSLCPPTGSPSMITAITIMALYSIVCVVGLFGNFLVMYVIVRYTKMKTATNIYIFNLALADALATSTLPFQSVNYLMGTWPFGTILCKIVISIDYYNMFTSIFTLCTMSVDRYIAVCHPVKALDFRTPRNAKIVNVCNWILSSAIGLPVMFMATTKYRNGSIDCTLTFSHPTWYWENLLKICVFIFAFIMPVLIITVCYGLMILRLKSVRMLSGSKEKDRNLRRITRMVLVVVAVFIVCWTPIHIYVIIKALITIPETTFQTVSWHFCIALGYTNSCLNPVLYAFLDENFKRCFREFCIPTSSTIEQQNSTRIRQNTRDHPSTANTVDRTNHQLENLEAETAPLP

**Q.** Which results are given for `CC(=O)NCCCC(NC(=O)C(N)Cc1ccc(O)cc1)C(=O)NCC(=O)NC(Cc1ccc([N+](=O)[O-])cc1)C(N)=O` [Peptide 1, Tyr-(N^δ—Ac)-D-Orn-Gly-Phe(p-NO2)—NH2]?
**A.** Duration of analgesic effect at ED60-80 (outbreed male mice; intracisternal administration): 120 min; ED50 nmol/animal (dose interval) (outbreed male mice; intracisternal administration): 0.02 (0.01-0.04) nmol/animal; Relative analgesic activity morphine = 1 (outbreed male mice; intracisternal administration): 60; Duration of analgesic effect at ED60-80 (outbreed male mice; intravenous administration): 60 min; ED50 μmol/kg (dose interval) (outbreed male mice; intravenous administration): 8.0 (0-25) μmol/kg; Relative analgesic activity morphine = 1 (outbreed male mice; intravenous administration): 2 and 2.2; activity compared with morphine [1]: more active than morphine by one order; GPIrel/MVDrel [2]: 46; ED50 (jump latency) (CD-1 male mice; intravenous administration, time point of 15 min): 1.27 mg/kg; analgesic activity exceeding that of morphine (CD-1 male mice; intravenous, from ED50 at 15 min): 2 times; lifetime longer than in the control experiments ([3]; 1.0 mg/kg i.p.): 57%; Duration of life ([3]; 1.0 mg/kg i.p. 1 min before hermetic chamber): 16.9 ± 1.1 min; MVD Relative potency, % ([4]; [Leu^5]-enkephalin = 100): 52%; IC50 ([4]; mouse vas deferens, electrical stimulation): 38.5 ± 20.1 nM; myocardial necrosis size ([5]; 0.05 mg/kg i.p. 30 min after coronary occlusion, observation time 6 hours): 40.70 ± 1.52; myocardial necrosis size ([5]; 0.05 mg/kg i.p. 30 min after coronary occlusion, observation time 12 hours): 47.51 ± 1.63; myocardial necrosis size ([5]; 0.5 mg/kg i.p. 30 min after coronary occlusion, observation time 6 hours): 40.05 ± 1.93; myocardial necrosis size ([5]; 0.5 mg/kg i.p. 30 min after coronary occlusion, observation time 12 hours): 46.64 ± 2.20; Glycogen of heart [5, 6]: 1.00 ± 0.12 g/kg; Glycogen of liver [5, 6]: 6.98 ± 1.02 g/kg; Glycogen of heart ([5]; 24 hours after ligature, compound (1) 0.05 mg/kg): 1.11 ± 0.17 g/kg; CPK [5, 6]: 93.5 ± 5.3 units/l; HF-CPK [5, 6]: 15.3 ± 0.7 units/l; Lactate [5, 6]: 1.61 ± 0.45 mmol/L; CPK [5, 7]: 86.6 ± 4.9 units/l; HF-CPK [5, 7]: 12.3 ± 0.7 units/l; Lactate [5, 7]: 1.70 ± 0.09 mmol/L; Lethality % ([5]; 0.05 mg/kg): 33%; Lethality % ([5]; 0.5 mg/kg): 27%
